Test results from patent US8476287B2, “3-hydroxy-5-arylisothiazole derivative” (Mochida Pharmaceutical Co., Ltd., priority 2009, dated 2013).
Structures can show the parent of a compound that is named as a salt.

target: T1, GPR40 of human origin (Homo sapiens, UniProt O14842); assay: Agonist action on GPR40 of human origin (Ca2+ fluorescence in CHO cells); type: cell-based; settings: CHO cell strain stably expressing GPR40 of human origin; Ca2+ concentration fluctuation, fluorescent calcium indicator
T1 construct: expressed in transfected cells
Experimental: A CHO cell strain stably expressing GPR40 of human origin was used to determine the agonist action of a subject compound. This cell strain was seeded in a clear bottom 96 well plate at 4×10^4 cells/100 μL/well. The cell strain was cultured in a CO2 incubator overnight using a Ham's F-12 medium containing a 10% fetal bovine serum, 100 U/mL penicillin, 0.1 mg/mL streptomycin, and 400 μg/mL Geneticin. Calcium 4 Assay Kit (Molecular Devices) was used as a fluorescent calcium indicator. One mL of 77 mg/mL probenecid (Invitrogen) was added to 100 mL of a calcium indicator solution to prepare a solution (loading solution) mixed with a 20 mM HEPES-containing Hanks' balanced salt solution (HBSS) in equal proportions. 200 μL of the loading solution was added to the cells from which the culture solution was removed, and the cells were cultured in a CO2 incubator for 1 hour. The subject compound was diluted with a 20 mM HEPES-containing HBSS and was added to the cells by 50 μL, and the fluctuation of the Ca^2+ concentration was measured by an intracellular ion analyzer. The EC50 value of the subject compound was calculated using the dose-response curve of fluorescence intensity variation.

T1 sequence (O14842 whole entry): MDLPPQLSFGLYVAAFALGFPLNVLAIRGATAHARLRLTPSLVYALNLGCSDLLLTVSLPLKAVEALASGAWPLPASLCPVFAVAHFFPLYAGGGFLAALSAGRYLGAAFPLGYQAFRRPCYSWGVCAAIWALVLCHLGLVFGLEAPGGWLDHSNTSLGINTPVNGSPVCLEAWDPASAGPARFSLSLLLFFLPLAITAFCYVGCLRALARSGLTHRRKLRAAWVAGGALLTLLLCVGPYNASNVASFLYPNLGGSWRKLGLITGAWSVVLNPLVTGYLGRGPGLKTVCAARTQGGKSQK

EC50	SMILES
< 0.3 µM	[O-][s+]1nc(O)cc1-c1ccc(O[C@@H]2CCc3c(Br)cccc32)cc1 (stereo partly drawn) [Example 66, 5-(4-((1R)-4-bromo-2,3-dihydro-1H-inden-1-yloxy)phenyl)isothiazol-3-ol 1-oxide(A)]
0.3 to 3 µM	[O-][s+]1nc(O)cc1-c1ccc(O[C@H]2CCc3c(Br)cccc32)cc1 (stereo partly drawn) [Example 67, 5-(4-((1S)-4-bromo-2,3-dihydro-1H-inden-1-yloxy)phenyl)isothiazol-3-ol 1-oxide(A)]
< 0.3 µM	[O-][s+]1nc(O)cc1-c1ccc(OC2CCc3c(Cl)cccc32)cc1 (centres unmarked) [Example 68, 5-(4-(4-chloro-2,3-dihydro-1H-inden-1-yloxy)phenyl)isothiazol-3-ol 1-oxide(A)]
< 0.3 µM	[O-][s+]1nc(O)cc1-c1ccc(OC2CCc3c2cccc3C(F)(F)F)cc1 (centres unmarked) [Example 69, 5-(4-(4-trifluoromethyl-2,3-dihydro-1H-inden-1-yloxy)phenyl)isothiazol-3-ol 1-oxide(A)]
0.3 to 3 µM	CC(=O)NCCCOc1ccc(-c2cccc(COc3ccc(-c4cc(O)n[s+]4[O-])cc3)c2C)c(C)n1 (centres unmarked) [Example 71, N-[3-[5-[3-[[4-(3-hydroxy-1-oxo-isothiazol-5-yl)phenoxy]methyl]-2-methylphenyl]-6-methylpyridin-2-yl]oxypropyl]acetamide(A)]
< 0.3 µM	Cc1cc(OCCCNS(C)(=O)=O)cc(C)c1-c1cccc(COc2ccc(-c3cc(O)n[s+]3[O-])cc2)c1 (centres unmarked) [Example 72, N-[3-[4-[3-[[4-(3-hydroxy-1-oxo-isothiazol-5-yl)phenoxy]methyl]phenyl]-3,5-dimethylphenoxy]propyl]methanesulfonamide(A)]
< 0.3 µM	Cc1cc(OCCCN)cc(C)c1-c1cccc(COc2ccc(-c3cc(O)n[s+]3[O-])cc2)c1 (centres unmarked) [Example 78, 5-[4-[[3-[4-(3-aminopropoxy)-2,6-dimethylphenyl]phenyl]methoxy]phenyl]isothiazol-3-ol 1-oxide(A)]
< 0.3 µM	[O-][s+]1nc(O)cc1-c1ccc(OC2COc3c2cccc3C(F)(F)F)cc1 (centres unmarked) [Example 80, 1-oxo-5-[4-[[7-(trifluoromethyl)-2,3-dihydro-1-benzofuran-3-yl]oxy]phenyl]-1,2-thiazol-3-ol (A)]
0.3 to 3 µM	[O-][s+]1nc(O)cc1-c1ccc(OC2CCOc3cc(C(F)(F)F)ccc32)cc1 (centres unmarked) [Example 83, 5-[4-[[7-(trifluoromethyl)-3,4-dihydro-2H-chromen-4-yl]oxy]phenyl]isothiazol-3-ol 1-oxide(A)]
< 0.3 µM	CC1(C)CCC(C)(C)c2cc(COc3ccc(-c4cc(O)n[s+]4[O-])cc3)ccc21 (centres unmarked) [Example 85, 5-[4-[(5,5,8,8-tetramethyl-6,7-dihydronaphthalen-2-yl)methoxy]phenyl]isothiazol-3-ol 1-oxide(A)]
< 0.3 µM	[O-][s+]1nc(O)cc1-c1ccc(OCc2cccc(Cl)c2Cl)cc1 (centres unmarked) [Example 86, 5-[4-[(2,3-dichlorophenyl)methoxy]phenyl]isothiazol-3-ol 1-oxide(A)]
0.3 to 3 µM	C[C@@H](Oc1ccc(-c2cc(O)n[s+]2[O-])cc1)c1cccc(Br)c1 (stereo partly drawn) [Example 88, 5-[4-[(1R)-1-(3-bromophenyl)ethoxy]phenyl]isothiazol-3-ol 1-oxide(A)]
0.3 to 3 µM	Cc1c(Br)cccc1COc1ccc(-c2cc(O)n[s+]2[O-])cc1 (centres unmarked) [Example 91, 5-[4-[(3-bromo-2-methylphenyl)methoxy]phenyl]isothiazol-3-ol 1-oxide(A)]
< 0.3 µM	Cc1cccc(C)c1N1CCC[C@H](COc2ccc(-c3cc(O)n[s+]3[O-])cc2)C1 (stereo partly drawn) [Example 96, 5-[4-[[(3S)-1-(2,6-dimethylphenyl)piperidin-3-yl]methoxy]phenyl]isothiazol-3-ol 1-oxide (A)]
0.3 to 3 µM	[O-][s+]1nc(O)cc1-c1ccc(OCCc2cccc(Oc3ccccc3)c2)cc1 (centres unmarked) [Example 106, 5-[4-[2-(3-phenoxyphenyl)ethoxy]phenyl]isothiazol-3-ol 1-oxide]
< 0.3 µM	COc1ccc(-c2cccc3c2CC[C@H]3Oc2ccc(-c3cc(O)n[s+]3[O-])cc2)c(C)n1 (stereo partly drawn) [Example 119, 5-[4-[[(1R)-4-(6-methoxy-2-methylpyridin-3-yl)-2,3-dihydro-1H-inden-1-yl]oxy]phenyl]isothiazol-3-ol 1-oxide(A)trifluoroacetate salt]
0.3 to 3 µM	[O-][s+]1nc(O)cc1-c1ccc(O[C@@H]2CCc3c(C4=CCOCC4)cccc32)cc1 (stereo partly drawn) [Example 121, 5-[4-[[(1R)-4-(3,6-dihydro-2H-pyran-4-yl)-2,3-dihydro-1H-inden-1-yl]oxy]phenyl]isothiazol-3-ol 1-oxide(A)]
< 0.3 µM	[O-][s+]1nc(O)cc1-c1ccc(OC2CCc3c(Oc4ccccc4)cccc32)cc1 (centres unmarked) [Example 124, 5-[4-[(4-phenoxy-2,3-dihydro-1H-inden-1-yl)oxy]phenyl]isothiazol-3-ol 1-oxide(A)]
< 0.3 µM	Cc1ncccc1Oc1cccc2c1CCC2Oc1ccc(-c2cc(O)n[s+]2[O-])cc1 (centres unmarked) [Example 125, 5-[4-[[4-(2-methylpyridin-3-yl)oxy-2,3-dihydro-1H-inden-1-yl]oxy]phenyl]isothiazol-3-ol 1-oxide(A)]
< 0.3 µM	COc1cc(Oc2cccc3c2CCC3Oc2ccc(-c3cc(O)n[s+]3[O-])cc2)ccn1 (centres unmarked) [Example 126, 5-[4-[[4-(2-methoxypyridin-4-yl)oxy-2,3-dihydro-1H-inden-1-yl]oxy]phenyl]isothiazol-3-ol 1-oxide(A)]
< 0.3 µM	[O-][s+]1nc(O)cc1-c1ccc(OC2CCc3c(OCc4ccccc4)cccc32)cc1 (centres unmarked) [Example 129, 5-[4-[(4-phenylmethoxy-2,3-dihydro-1H-inden-1-yl)oxy]phenyl]isothiazol-3-ol 1-oxide(A)]
< 0.3 µM	[O-][s+]1nc(O)cc1-c1ccc(OC2CCc3c(OC4CCCCC4)cccc32)cc1 (centres unmarked) [Example 131, 5-[4-[(4-cyclohexyloxy-2,3-dihydro-1H-inden-1-yl)oxy]phenyl]isothiazol-3-ol 1-oxide(A)]
< 0.3 µM	[O-][s+]1nc(O)cc1-c1ccc(OC2CCc3c(OC4CCOCC4)cccc32)cc1 (centres unmarked) [Example 132, 5-[4-[[4-(oxan-4-yloxy)-2,3-dihydro-1H-inden-1-yl]oxy]phenyl]isothiazol-3-ol 1-oxide(A)]
0.3 to 3 µM	[O-][s+]1nc(O)cc1-c1ccc(COCc2cccc(Br)c2)cc1 (centres unmarked) [Example 141, 5-[4-[(3-bromophenyl)methoxymethyl]phenyl]isothiazol-3-ol 1-oxide]

SMILES	EC50
Cc1cc(OCC[C@@H](C)O)cc(C)c1-c1cccc(COc2ccc(-c3cc(O)n[s+]3[O-])cc2)c1 (stereo partly drawn) [Example 63, 5-(4-((3-(2,6-dimethyl-4-((3R)-3-hydroxybutoxy)phenyl)phenyl)methoxy)phenyl)isothiazol-3-ol 1-oxide(A)]	< 0.3 µM
Cc1cc(OCC[C@@H](C)O)cc(C)c1-c1cccc(COc2ccc(-c3cc(O)n[s+]3[O-])cc2)c1C (stereo partly drawn) [Example 64, 5-(4-((3-(2,6-dimethyl-4-((3R)-3-hydroxybutoxy)phenyl)-2-methylphenyl)methoxy)phenyl)isothiazol-3-ol 1-oxide(A)]	< 0.3 µM
